Structures can show the parent of a compound that is named as a salt.

For one assay, the system named is TNF-α. Put plainly: LPS-induced TNF-α production in human normal PBMCs (ELISA). The format is cell-based. The method, then: (§1) PBMCs were isolated from fresh blood using a Ficoll-Paque Plus reagent (Amersham Bioscience) according to the protocol recommended by the manufacturer. The cells were suspended in a RPMI 1640 medium containing 10% FBS at a concentration of 1×10^5 cells/ml and seeded in a 96-well plate (1×10^4 cells total in each well). Each reaction was carried out in three wells.
(§2) 10 μl of pseudolycorine hydrochloride in DMSO was added to wells to obtain the final concentrations at 0.1, 0.3, 1, 3, 10, 30, and 100 μg/ml. In a positive control, dexamethason (DEX), an anti-inflammatory agent, instead of pseudolycorine hydrochloride, was added (final concentration 10 μM). In a negative control, 10 μl of the medium, instead of pseudolycorine hydrochloride, was added. The plate was placed in a 5% CO2 incubator at 37° C. for 15 minutes. After 10 μl aliquots of 100 μg/ml of LPS were added to all wells except for the negative control, the plate was placed in a 5% CO2 incubator at 37° C. overnight.
(§3) The plate was spun at 1000 rpm for 15 minutes and the supernatants were collected. The concentrations of TNF-α and IL-1β were measured by the TNF-α ELISA (Enzyme Linked Immunosorbent Assay) Kit and IL-1β ELISA Kit (Jingmei Bioengineer Technology). The inhibition ratios of TNF-α and IL-1β were calculated as follows: TNF-α Inhibition Ratio (%)=[TNF-α]control−[TNF-α]PHCl/[TNF-α]control×100% IL-1β Inhibition Ratio (%)=[IL-1β]control−[IL-1β]PHCl/[IL-1β]control×100% where [TNF-α]PHCl is the concentration of TNF-α in PBMCs treated with pseudolycorine hydrochloride and LPS, [TNF-α]control is the concentration of TNF-α in PBMCs treated with LPS and the medium, [IL-1β]PHCl is the concentration of IL-1β in PBMCs treated with pseudolycorine hydrochloride and LPS, and [IL-1β]control is the concentration of IL-1β in PBMCs treated with LPS and the medium.
In general terms: An ELISA detects its analyte on a solid surface through an enzyme-linked reagent.

A further assay deals with IL-1β. The assay can be described thus: LPS-induced IL-1β production in human normal PBMCs (ELISA). It is filed as cell-based. How it is done:
as §1, §2, §3

The mark [1] stands for this setting: compared with dexamethason (DEX) at 10 μM, LPS-stimulated human PBMCs.

Take `COc1cc2c(cc1O)[C@@H]1[C@H](O)[C@@H](O)C=C3CCN(C2)[C@H]31` [pseudolycorine hydrochloride]: in the assay with TNF-α (0.1-100 μg/ml, FIG. 3), the “inhibition of expression of TNF-α, concentration dependence” value is “concentration-dependent manner”. The “concentration at which expression of TNF-α was inhibited” value in the assay with TNF-α (LPS-stimulated human PBMCs, overnight, ELISA of supernatant, FIG. 1) was at least 0.3 µg/mL. For the same molecule, in the assay with TNF-α (setting [1]), the “concentration at which expression of TNF-α was inhibited more effectively than DEX” value was at least 3 µg/mL. In addition, the “inhibition of expression of IL-1β, concentration dependence” value in the assay with IL-1β (0.1-100 μg/ml, FIG. 4) is listed as “concentration-dependent manner”. Further, the “concentration at which expression of IL-1β was inhibited” value with IL-1β (LPS-stimulated human PBMCs, overnight, ELISA of supernatant, FIG. 2) was at least 1 µg/mL. The “concentration at which expression of IL-1β was inhibited more effectively than DEX” value with IL-1β (setting [1]) was at least 10 µg/mL.

The values above are taken from patent US20050148616A1, “Inhibitor of TNF-alpha and IL-1beta production” (priority 2003, published 2005).
